According to US10828301B2, “2,4-pyrimidinediamine compounds and their uses” (Rigel Pharmaceuticals, Inc, priority 2002, dated 2020):

Tests used:
[1] = tested on: cultured human mast cells (CHMC); assay: CHMC low cell density ionomycin activation: tryptase assay; assay type: cell-based; conditions: read-out: CHMC Ionomycin Tryptase
[2] = tested on: cultured human mast cells (CHMC); assay: CHMC low cell density IgE activation: tryptase and LTC4 assays; assay type: cell-based; conditions: read-out: CHMC anti-IgE Tryptase
Procedure, shortened: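 Degranulation measured after 30 min anti-IgE challenge at 37° C of CHMC plated at 1000-1500 cells/well following 1 h preincubation. Readouts: LTC4 by ELISA on donor-specific diluted supernatants, and tryptase activity from a 30 min room-temperature substrate reaction.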

[3] = Homo sapiens, Mast cell, Low Density CHMC, ionomycin activation, tryptase readout
[4] = Homo sapiens, Mast cell, Low Density CHMC, anti-IgE activation, tryptase readout

Row | SMILES | IC50 [1, 3] [µM] | IC50 [2, 4] [nM] | other results
1 | COc1cc(Nc2ncc(F)c(Nc3cccc(O)c3)n2)cc(OC)c1OC [Compound R926761, 5-Fluoro-N4-(3-hydroxyphenyl)-N2-(3,4,5-trimethoxyphenyl)-2,4-pyrimidinediamine] | > 10 | 245 | 
2 | Nc1nc(N(CC(O)c2ccccc2)c2ccc3c(c2)OCCO3)ncc1F (stereo not drawn) [Compound R925765, N2-(3,4-Ethylenedioxyphenyl)-5-fluoro-N2-(2-hydroxy-2-phenylethyl)-2,4-pyrimidinediamine] | > 10 | 6800 | 
3 | Cc1cc(Nc2ncc(F)c(Nc3ccc4c(c3)N=CCO4)n2)cc(Cl)c1O [Compound R909255, N4-(1,4-Benzoxazin-6-yl)-N2-(3-chloro-4-hydroxy-5-methylphenyl)-5-fluoro-2,4-pyrimidinediamine] | > 10 | 244 | 
4 | COc1cc(Nc2nc(Nc3cccc(OCCO)c3)ncc2F)cc(OC)c1 [Compound R935181, N4-(3,5-Dimethoxyphenyl)-5-fluoro-N2-[3-(2-hydroxyethoxy)phenyl]-2,4-pyrimidinediamine] | > 10 | 1760 | 
5 | COC(=O)c1ccc(Nc2ncc(F)c(Nc3ccc(C(=O)OC)c(O)c3)n2)cc1O [Compound R945056, N2,N4-Bis[3-hydroxy-4-(methoxycarbonyl)phenyl]-5-fluoro-2,4-pyrimidinediamine] | > 10 | 10000 | 
6 | CC(C)(C)OC(=O)C=Nc1cccc(Nc2nc(Nc3cccc(N)c3)ncc2F)c1 [Compound R950179, N2-(3-Aminophenyl)-N4-(3-tert-butoxycarbonylmethyleneaminophenyl)-5-fluoro-2,4-pyrimidinediamine] | > 10 | 955 | 
7 | CC(=O)Nc1cccc(OCCCNc2ncc(F)c(Nc3ccc4c(c3)OCCO4)n2)c1 [Compound R926787, N2-[3-(3-Acetamidophenoxy)propyl]-N4-(3,4-ethylenedioxyphenyl)-5-fluoro-2,4-pyrimidinediamine] | > 10 | 5420 | 
8 | O=C1COc2cc(Nc3ncc(F)c(Nc4cccc(O)c4)n3)ccc2N1 [Compound R908699, N2-(1,4-Benzoxazin-3-on-7-yl)-5-fluoro-N4-(3-hydroxyphenyl)-2,4-pyrimidinediamine] | > 10 | 217 | 
9 | C=CCNc1ncc(F)c(Nc2ccc3c(c2)OCCO3)n1 [Compound R925823, N2-Allyl-N4-(3,4-ethylenedioxyphenyl)-5-fluoro-2,4-pyrimidinediamine] | > 10 | > 10000 | 
10 | Cc1ccc(-c2ccccc2)cc1Nc1ncc(Br)c(Nc2cc(-c3ccccc3)ccc2C)n1 [Compound R925800, N2,N4-Bis(2-methyl-5-phenylphenyl)-5-bromo-2,4-pyrimidinediamine] | > 10 | > 10000 | 
11 | Clc1ccc(-c2cnc(Nc3ccc4c(c3)OCCO4)nc2Nc2ccc3c(c2)OCCO3)cc1 [Compound R925786, N2,N4-Bis(3,4-ethylenedioxyphenyl)-5-(4-chlorophenyl)-2,4-pyrimidinediamine] | > 10 | 1850 | 
12 | CNC(=O)COc1cccc(Nc2ncc(F)c(Nc3ccc4c(c3)C(=NO)CCC4)n2)c1 [Compound R926948, 5-Fluoro-N4-(1,2,3,4-tetrahydro-1-hydroxyiminonaphthalen-7-yl)-N2-[3-[(N-methylamino)carbonylmethyleneoxy]phenyl]-2,4-pyrimidinediamine] |  |  | IC50 ([1]; Low Density CHMC, ionomycin activation, tryptase readout): > 10 µM; IC50 ([2]; Low Density CHMC, anti-IgE activation, tryptase readout): 246 nM
13 | Cc1cc(Nc2nc(Nc3cccc(O)c3)ncc2F)cc(Cl)c1O [Compound R940235, N4-(3-Chloro-4-hydroxy-5-methylphenyl)-5-fluoro-N2-(3-hydroxyphenyl)-2,4-pyrimidinediamine] | > 10 | 800 | 
14 | Oc1cccc(Nc2nc(NCc3ccc4c(c3)OCCO4)ncc2F)c1 [Compound R945168, N2-(2,3-Dihydro-1,4-benzodioxin-6-ylmethyl)-5-fluoro-N4-(3-hydroxyphenyl)-2,4-pyrimidinediamine] | > 10 | 10000 | 
15 | CCOC(=O)C(C)(C)c1ccc(Nc2nc(Nc3ccc4c(c3)OCCO4)ncc2F)cc1 [Compound R935172, N4-[4-[Ethoxycarbonyl(dimethyl)methyl]phenyl]-N2-(3,4-ethylenedioxyphenyl)-5-fluoro-2,4-pyrimidinediamine] | 6.81 | 1380 | 
16 | CC(C)(CO)NC(=O)c1cc2cc(Nc3ncc(F)c(Nc4cccc(O)c4)n3)ccc2o1 [Compound R926715, 5-Fluoro-N2-[2-(2-hydroxy-1,1-dimethylethylamino)carbonylbenzofuran-5-yl]-N4-(3-hydroxyphenyl)-2,4-pyrimidinediamine] | > 10 | 588 | 
17 | COC(=O)c1cc(Nc2nc(Nc3cccc(O)c3)ncc2Br)cn1C [Compound R935025, 5-Bromo-N2-(3-hydroxyphenyl)-N4-(N-methyl-2-carbomethoxypyrrol-4-yl)-2,4-pyrimidinediamine] | > 10 | 1040 | 

Row | SMILES | IC50 [1, 3] [µM] | IC50 [2, 4] [nM] | other results
18 | O=C1COc2ccc(Nc3nc(Nc4cccc(O)c4)ncc3F)cc2N1 [Compound R908702, N4-(1,4-Benzoxazine-3-on-6-yl)-5-fluoro-N2-(3-hydroxyphenyl)-2,4-pyrimidinediamine] | 7.4 | 104 | 
19 | Nc1cc(Nc2ccnc(Nc3ccc(Nc4ccccc4)c(N)c3)n2)ccc1Nc1ccccc1 [Compound R950123, N2,N4-Bis[3-amino-4-(N-phenylamino)-phenyl]-2,4-pyrimidinediamine] | 8.45 | 3250 | 
20 | COc1ccc(-c2ccccc2)cc1Nc1ccnc(Nc2cc(-c3ccccc3)ccc2OC)n1 [Compound R925805, N2,N4-Bis(2-methoxy-5-phenylphenyl)-2,4-pyrimidinediamine] | > 10 | > 10000 | 
21 | O=[N+]([O-])c1cc(Nc2ncc(F)c(Nc3ccc(F)c([N+](=O)[O-])c3)n2)ccc1F [Compound R950148, N2,N4-Bis(4-fluoro-3-nitrophenyl)-5-fluoro-2,4-pyrimidinediamine] |  |  | IC50 ([1]; Homo sapiens, Mast cell): > 10 µM; IC50 ([2]; Homo sapiens, Mast cell): 2280 nM
22 | CNC(=O)c1cc2cc(Nc3nc(Nc4ccc5c(c4)OCCO5)ncc3F)ccc2o1 [Compound R926491, N2-(3,4-Ethylenedioxyphenyl)-5-fluoro-N4-[2-(N-methylamino)carbonylbenzofuran-5-yl]-2,4-pyrimidinediamine] | > 10 | 1160 | 
23 | CCOC(=O)C=Nc1cccc(Nc2nc(N(CC(=O)OCC)c3cccc(N=CC(=O)OCC)c3)ncc2F)c1 [Compound R950183, N2,N4-Bis(3-ethoxycarbonylmethyleneaminophenyl)-N2-(ethoxycarbonylmethyl)-5-fluoro-2,4-pyrimidinediamine] | > 10 | 4800 | 
24 | CCOC(=O)c1cnc(Nc2cccc(O)c2)nc1NOCc1ccccc1 [Compound R925824, N4-Benzyloxy-5-ethoxycarbonyl-N2-(3-hydroxyphenyl)-2,4-pyrimidinediamine] | > 10 | > 10000 | 
25 | O=C(NCC(O)CO)c1cc2cc(Nc3ncc(F)c(Nc4ccc5c(c4)OCCO5)n3)ccc2o1 (stereo not drawn) [Compound R926783, N2-[2-(N-2,3-Dihydroxypropylamino)carbonylbenzofuran-5-yl]-N4-(3,4-ethylenedioxyphenyl)-5-fluoro-2,4-pyrimidinediamine] | > 10 | 304 | 
26 | CCOC(=O)c1cc2cc(Nc3ncc(F)c(Nc4cccc(O)c4)n3)ccc2[nH]1 [Compound R926615, N2-(2-Ethoxycarbonylindol-5-yl)-5-fluoro-N4-(3-hydroxyphenyl)-2,4-pyrimidinediamine] | > 10 | 445 | 
27 | COC(=O)c1cc2cc(Nc3ncc(F)c(Nc4cccc(C(C)(C)C)c4)n3)ccc2o1 [Compound R940281, N4-(3-tert-Butylphenyl)-5-fluoro-N2-(2-methoxycarbonylbenzofur-5-yl)-2,4-pyrimidinediamine] | 5.53 | 525 | 
28 | CN(C)C(=O)C=Nc1cccc(Nc2ncc(F)c(Nc3cccc(O)c3)n2)c1 [Compound R950220, N2-[3-(N,N-Dimethylamino)carbonylmethyleneaminophenyl]-5-fluoro-N4-(3-hydroxyphenyl)-2,4-pyrimidinediamine] | > 10 | 489 | 
29 | CNC(=O)C1Cc2cc(Nc3ncc(F)c(Nc4ccc(OC(F)(F)F)c(Cl)c4)n3)ccc2O1 (stereo not drawn) [Compound R926954, N4-(3-Chloro-4-trifluoromethoxyphenyl)-5-fluoro-N2-[2,3-dihydro-2-[(N-methylamino)carbonyl]benzofuran-5-yl]-2,4-pyrimidinediamine] | > 10 | 284 | 
30 | c1coc(-c2cnc(Nc3ccc4c(c3)OCCO4)nc2Nc2ccc3c(c2)OCCO3)c1 [Compound R925785, N2,N4-Bis(3,4-ethylenedioxyphenyl)-5-(2-furanyl)-2,4-pyrimidinediamine] | > 10 | 2500 | 
31 | O=C(O)c1ccc(Nc2ncc(F)c(Nc3ccc(C(=O)O)cc3)n2)cc1 [Compound R945037, N2,N4-Bis(4-carboxyphenyl)-5-fluoro-2,4-pyrimidinediamine] | > 10 | > 10000 | 
32 | CCOC(=O)c1nc(Nc2ccc3c(c2)OCCO3)nc(Nc2ccc3c(c2)OCCO3)c1N [Compound R925857, 5-Amino-6-ethoxycarbonyl-N2,N4-bis(3,4-ethylenedioxyphenyl)-2,4-pyrimidinediamine] | > 10 | 5950 | 
33 | Oc1cccc(Nc2ncc(F)c(Nc3ccc4c(c3)N=CCO4)n2)c1 [Compound R909243, N4-(1,4-benzoxazin-6-yl)-5-fluoro-N2-(3-hydroxyphenyl)-2,4-pyrimidinediamine] | > 10 | 263 | 
